# According to patent US9974767B2, “Statins in the treatment of muscular dystrophies and myopathies” (University of Washington, priority 2014, dated 2018):
# “And” between values parts separate entries of the source, which are not always exact repeats. Equal entries are not always repeated. “Also recorded” adds a separate entry of the source.
# Key:
# Assay type in all cases: in vivo, mouse
# [1] = tested on: WT mice; experiment: Plasma CK activity in wild type mice; settings: 8 months treatment, vs untreated WT
# Description: The activity levels of the mice were measured by voluntary running wheel activity over 2 days. […] Therefore, since CK was measured after the running wheel activity, the dramatic reduction in CK levels in Simvastatin-treated mdx mice is not related to exercise levels. […] Therefore, statins cause a robust reduction in CK release from dystrophic muscle both in long-term treated mice starting from a young age (3 weeks to 8 months), and in old mice (12 months) over a 2 month period.
# DMD is a chronic, progressively degenerative disease and consequently potential treatments need to be effective over many years. […] The calculated dose given to the mice was between 5-10 mg/kg/day. This would equate to 20-40 mg/day for a 10 yea old DMD boy weighing 30 kg, based on mouse to human equivalence calculations, which is within the recommended dose range of statins for children.
# Male dystrophin-deficient (mdx) and wild type (WT) mice on the C57BL/10ScSn background were used for all experiments, which were approved by the Institutional Animal Care and Use Committee (IACUC) at the University of Washington.
# Simvastatin powder (TCI America) was formulated as a treatment in two ways; in the drinking water and in the food. […]
# Plasma CK was evaluated as a measure of whole body muscle damage. […]
# [2] = tested on: mdx mice; experiment: Diaphragm specific force, ex vivo muscle strips
# Description: Therefore, it is often difficult to fully evaluate the therapeutic potential of these compounds. When compared with results obtained with a clinically relevant dystrophin gene therapy approach, the magnitude of increased diaphragm force in Simvastatin-treated mice (25%) is quite impressive. Specifically, systemic delivery of a micro-dystrophin-expressing AAV vector to mdx mice provides a slightly lower (20%) average improvement in diaphragm specific force.
# In mdx mice, the diaphragm is the most severely affected skeletal muscle and diaphragm dysfunction is a major cause of respiratory failure in DMD.
# The diaphragm most closely recapitulates the functional deficits and fibrotic deposition that occur in DMD. […] The replacement of muscle fibers with fibrotic connective tissue is a major cause of impaired muscle force generation in DMD and therefore an important therapeutic target. […] Quantification of total collagen I levels in diaphragm muscles by hydroxyproline assay also indicated a 50% reduction in fibrosis for mdx Sim mice (FIG. 13E).
# Diaphragm function, ex vivo, was measured as described previously. Briefly, diaphragm strips (2-3 mm wide) were perfused with a physiological solution bubbled with 95% O2-5% CO2. Stimulation was provided by two platinum electrodes, attached along the sides of the chamber. A lengthforce curve, established using 120 Hz isometric contractions (300 ms duration spaced 1 min apart, established the optimum length (length producing maximum tetanic force), which was later used to calculate the specific force (force divided by cross-sectional area).
# [3] = tested on: mdx mice; experiment: TA muscle function in situ (specific force, fatigue, recovery)
# Description: Hindlimb (TA) muscle physiology was measured in situ, which has the advantages of direct nerve stimulation and intact blood circulation. […] We also evaluated muscle fatigue resistance and recovery from fatigue, because this is a major cause of weakness in dystrophic muscle. TA muscle fatigue was assessed after 1 min and 2 min of repetitive tetanic contractions (2 sec apart). […] Recovery from muscle fatigue was measured every 2 min up to 10 min post fatigue.
# Muscle degeneration and loss of function in DMD begins very early in the disease and progressively worsens over time. Consequently, useful therapeutic agents must be effective when administered at various stages of the disease. […] Hindlimb (TA) muscle physiology was measured in situ. This method has the advantages of direct nerve stimulation and intact blood circulation, which provides an essentially in vivo approach for measuring muscle function. Remarkably, specific muscle force increased by 40% (P<0.001) for mdx Sim compared to mdx Con mice, a dramatic increase for a pharmacological agent.
# In addition to the loss of specific force, increased muscle fatigue and slowed force recovery are also significant causes of muscle weakness in DMD. Muscle fatigue in TA was measured during repetitive tetanic contractions (every 2 seconds) for a total of 2 minutes. For mdx Con mice, force declined rapidly during the early part of the fatigue and then much less steeply for the remainder of the contractions (FIG. 12A). In contrast, the force decline for mdx Sim was very similar to the WT groups, with a slow force drop over the first minute and then a greater decline over the last minute (see FIG. 12B). […] Recovery from fatigue was measured up to 10 min post fatigue (FIG. 12C). […] The cellular mechanisms of muscle fatigue are complex, however ROS are known to be an important cause of force loss during muscle fatigue.
# Tibialis anterior (TA) muscle function was measured in situ. Mice were anaesthetized with an intraperitoneal injection of Avertin (625 mg/kg) and placed on a heated metal platform (37° C.). The distal TA tendon was dissected free and sutured to the lever arm of the force and length control system (305C-LR, Aurora Scientific). Muscle contraction was provided by stimulation of the Sciatic nerve using bipolar electrodes, which was kept moist during the experiment with PBS. The knee bone was firmly anchored to the platform via a steel pin. A length-force curve was generated by stimulating the muscle at 120 Hz (200 ms duration), every 90 sec, from short to long muscle lengths. […] Fatigue recovery was measured every 2 min up to 10 min post-fatigue. […] Membranes were incubated with enhanced chemiluminescence (ECL) reagent (Amersham) and bands were detected by the FluorChem M, imaging system (Protein Simple).
smiles,measurement,setting,value
"CCC(C)(C)C(=O)O[C@H]1C[C@@H](C)C=C2C=C[C@H](C)[C@H](CC[C@@H]3C[C@@H](O)CC(=O)O3)[C@H]21 [Simvastatin, simvastatin]",CK levels of WT mice,[1],no difference; also recorded: no effect
same,CK levels of WT mice,[1]; listed as simvastatin,no effect
same,improvement of diaphragm specific force,"[2]; mdx Sim vs mdx Con, 8 months treatment, stimulation 1 to 120 Hz",25% and 20-25%
same,improvement of diaphragm specific force,"[2]; mdx Sim vs mdx Con, 8 months treatment, stimulation 1 to 120 Hz, listed as simvastatin",20-25%
same,improvement of diaphragm specific force,"[2]; old mdx mice, 2 months treatment from 12 months of age, 10 to 120 Hz, vs untreated mdx",20-30%
same,force recovery at 2 min post fatigue,[3]; mdx Sim,"80.9 % of the initial, pre-fatigue force"
same,force recovery at 10 min post fatigue,[3]; mdx Sim,86.9%
same,increase of hindlimb (TA) specific muscle force,"[3]; mdx Sim vs mdx Con, treatment from 3 to 6 months of age",40%
same,TA force after 1 minute of fatigue,"[3]; mdx Sim, tetanic contractions every 2 sec, mdx Con 53%",68 % of initial force
